# Measurements reported in ChEMBL document CHEMBL1201862, “PubChem BioAssay data set” (2004).
# Active and inactive are the calls of the source.
# Columns and labels:
# Genome polyprotein = Genome polyprotein (dengue virus type 2, UniProt P29990); experiment: Dengue-2 NS5 methyltransferase inhibitors, primary screen, biochemical, confirmation dose response (AID 588689); format: functional
# Hexokinase HKDC1 = Hexokinase HKDC1 (Homo sapiens, UniProt Q2TB90); experiment: HKDC1 hexokinase inhibitors, dose response, biochemical, W721R variant (AID 504729); format: functional
# [1] = molecular target: Serine/threonine-protein phosphatase PP1-alpha catalytic subunit (Homo sapiens, UniProt P62136); experiment: PP1 phosphatase inhibitors, dose response, biochemical, fluorescence (AID 2394)
# [2] = molecular target: T1, Heat shock protein HSP 90-alpha (Homo sapiens, UniProt P07900); experiment: Luminescence-based dose response biochemical high throughput screening assay for inhibitors of the Heat Shock Protein 90 (HSP90). [Related pubchem assays: 1831 (Summary AID.), 1846 (Confirmation screen.), 1789 (Primary screen.)]
# [3] = molecular target: T2, Mitochondrial peptide methionine sulfoxide reductase (Bos taurus, UniProt P54149); format: functional;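 further: absorbance read-out, biochemical high-throughput dose-response screen for MsrA inhibitors, confirmatory; recombinant bovine MsrA coupled to E. coli TrxB with NADPH and selenocystamine; potency is for inhibitors of MsrA activity on DMSO substrate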
# T2 sequence (P54149 whole entry): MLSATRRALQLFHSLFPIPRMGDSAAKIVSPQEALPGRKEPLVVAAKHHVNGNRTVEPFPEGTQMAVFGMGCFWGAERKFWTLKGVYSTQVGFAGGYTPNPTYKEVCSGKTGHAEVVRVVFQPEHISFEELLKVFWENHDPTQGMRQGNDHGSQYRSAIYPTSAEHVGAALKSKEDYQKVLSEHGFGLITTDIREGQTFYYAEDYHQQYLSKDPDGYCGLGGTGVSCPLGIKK
# [4] = molecular target: T3, Apoptotic protease-activating factor 1 (Homo sapiens, UniProt O14727); format: functional
# T3 sequence (O14727 whole entry): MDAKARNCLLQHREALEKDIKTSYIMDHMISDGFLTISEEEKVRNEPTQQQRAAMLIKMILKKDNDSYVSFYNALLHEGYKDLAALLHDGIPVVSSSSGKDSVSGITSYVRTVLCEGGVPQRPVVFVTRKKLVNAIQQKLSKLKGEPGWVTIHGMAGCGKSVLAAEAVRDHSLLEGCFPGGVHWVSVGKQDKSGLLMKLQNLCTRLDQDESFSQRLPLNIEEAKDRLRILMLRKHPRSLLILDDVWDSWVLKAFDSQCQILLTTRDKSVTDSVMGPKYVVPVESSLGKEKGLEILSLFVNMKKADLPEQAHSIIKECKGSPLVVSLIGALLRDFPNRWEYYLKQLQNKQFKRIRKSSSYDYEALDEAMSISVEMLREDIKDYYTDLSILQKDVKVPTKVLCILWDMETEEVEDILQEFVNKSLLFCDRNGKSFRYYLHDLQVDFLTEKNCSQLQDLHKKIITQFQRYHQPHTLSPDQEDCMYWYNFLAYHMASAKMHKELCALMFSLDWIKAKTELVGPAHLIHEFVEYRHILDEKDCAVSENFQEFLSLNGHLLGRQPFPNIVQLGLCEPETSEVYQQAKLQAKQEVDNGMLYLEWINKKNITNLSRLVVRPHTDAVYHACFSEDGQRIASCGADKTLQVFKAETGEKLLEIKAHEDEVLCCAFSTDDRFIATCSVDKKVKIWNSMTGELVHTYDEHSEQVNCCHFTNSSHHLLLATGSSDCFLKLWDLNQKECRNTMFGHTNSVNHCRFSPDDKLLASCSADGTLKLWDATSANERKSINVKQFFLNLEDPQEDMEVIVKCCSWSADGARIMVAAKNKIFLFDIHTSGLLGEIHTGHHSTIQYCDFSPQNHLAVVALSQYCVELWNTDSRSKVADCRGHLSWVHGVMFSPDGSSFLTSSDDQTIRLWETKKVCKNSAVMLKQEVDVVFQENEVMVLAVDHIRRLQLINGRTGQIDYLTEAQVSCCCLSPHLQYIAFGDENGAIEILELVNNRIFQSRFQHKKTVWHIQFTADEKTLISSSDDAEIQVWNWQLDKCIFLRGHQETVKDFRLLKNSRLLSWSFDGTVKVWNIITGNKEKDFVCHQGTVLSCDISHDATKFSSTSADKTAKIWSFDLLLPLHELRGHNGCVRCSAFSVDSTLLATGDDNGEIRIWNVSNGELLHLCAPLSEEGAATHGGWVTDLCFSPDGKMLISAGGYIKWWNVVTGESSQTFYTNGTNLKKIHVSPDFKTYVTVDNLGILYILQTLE
# [5] = molecular target: Kappa-type opioid receptor (Homo sapiens, UniProt P41145); format: functional
# [6] = cytotoxicity in HEK-293T cells, dose response, cytotoxicity control for TCR NF-kB inhibitor project, luminescence, T-cell screen hits (AID 489026); format: functional, cell-based;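 further: cells exposed to compound about 14 hours before the viability readout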
# [7] = molecular target: Photoreceptor-specific nuclear receptor (Homo sapiens, UniProt Q9Y5X4); format: functional, cell-based;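 further: CHO-S cells with Gal4-NCOR and VP16-NR2E3 two-hybrid luciferase reporter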
# [8] = growth suppression of PTEN-null colon cells, dose response, cell-based, HCT116 PTEN knockout (AID 1047); format: functional;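 further: HCT116 colon tumor cells with PTEN knocked out; cells exposed to compound for 60 hours before readout; potency for loss of cell viability measured by luminescence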
# [9] = molecular target: T4, Rac GTPase-activating protein 1 (Homo sapiens, UniProt Q9H0H5); experiment: MgcRacGAP GTPase-activating activity inhibitors, confirmation, biochemical, ADP Hunter fluorescence, primary and confirmatory (AID 624330); format: functional
# T4 sequence (Q9H0H5 whole entry): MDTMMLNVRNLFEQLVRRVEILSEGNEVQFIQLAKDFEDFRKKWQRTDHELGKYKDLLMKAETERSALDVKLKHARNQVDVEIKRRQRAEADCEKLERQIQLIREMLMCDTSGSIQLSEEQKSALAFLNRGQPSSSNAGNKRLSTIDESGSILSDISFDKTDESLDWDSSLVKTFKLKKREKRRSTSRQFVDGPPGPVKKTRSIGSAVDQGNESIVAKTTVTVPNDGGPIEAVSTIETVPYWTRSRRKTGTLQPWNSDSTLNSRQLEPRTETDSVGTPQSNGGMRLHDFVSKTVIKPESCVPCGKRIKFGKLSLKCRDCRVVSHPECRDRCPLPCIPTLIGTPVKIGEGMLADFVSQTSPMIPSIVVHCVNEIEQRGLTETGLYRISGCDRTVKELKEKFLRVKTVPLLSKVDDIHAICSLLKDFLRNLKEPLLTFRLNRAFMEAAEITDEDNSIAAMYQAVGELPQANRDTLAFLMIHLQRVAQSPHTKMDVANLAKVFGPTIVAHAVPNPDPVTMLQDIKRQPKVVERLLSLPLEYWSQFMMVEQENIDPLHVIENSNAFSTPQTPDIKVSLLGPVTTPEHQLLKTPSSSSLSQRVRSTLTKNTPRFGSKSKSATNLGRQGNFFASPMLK
# HeLa = experiment: Cytotoxicity counterscreen assay for transcriptional activators of heat shock protein 70 (Hsp70). [Related pubchem assays: 1203, 1252 ]; format: functional; conditions: Homo sapiens;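 further: cells exposed to compound for 16 hours before readout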
# [10] = molecular target: Luciferin 4-monooxygenase (Photinus pyralis, UniProt P08659); experiment: firefly luciferase enzyme inhibitors, dose response, biochemical, luminescence (AID 1891)
# [11] = molecular target: T1, Heat shock protein HSP 90-alpha; format: functional, organism-based
# [12] = HeLa cell cytotoxicity, dose response, cytotoxicity control for MgcRacGAP inhibitor project (AID 624300); format: functional
# CHO = experiment: cytotoxicity in TLR9-MyD88 CHO cells, dose response, cytotoxicity control for TLR9-MyD88 binding inhibitor project, cell-based, luminescence (AID 588339); format: functional, hamster; conditions: Cricetulus griseus;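 further: CHO cells stably coexpressing TLR9 and MyD88 fusions from primary screen; compound exposure lasted 48 hours before viability readout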
# Genome polyprotein, sequence (P29990 2492-3391 limits assumed): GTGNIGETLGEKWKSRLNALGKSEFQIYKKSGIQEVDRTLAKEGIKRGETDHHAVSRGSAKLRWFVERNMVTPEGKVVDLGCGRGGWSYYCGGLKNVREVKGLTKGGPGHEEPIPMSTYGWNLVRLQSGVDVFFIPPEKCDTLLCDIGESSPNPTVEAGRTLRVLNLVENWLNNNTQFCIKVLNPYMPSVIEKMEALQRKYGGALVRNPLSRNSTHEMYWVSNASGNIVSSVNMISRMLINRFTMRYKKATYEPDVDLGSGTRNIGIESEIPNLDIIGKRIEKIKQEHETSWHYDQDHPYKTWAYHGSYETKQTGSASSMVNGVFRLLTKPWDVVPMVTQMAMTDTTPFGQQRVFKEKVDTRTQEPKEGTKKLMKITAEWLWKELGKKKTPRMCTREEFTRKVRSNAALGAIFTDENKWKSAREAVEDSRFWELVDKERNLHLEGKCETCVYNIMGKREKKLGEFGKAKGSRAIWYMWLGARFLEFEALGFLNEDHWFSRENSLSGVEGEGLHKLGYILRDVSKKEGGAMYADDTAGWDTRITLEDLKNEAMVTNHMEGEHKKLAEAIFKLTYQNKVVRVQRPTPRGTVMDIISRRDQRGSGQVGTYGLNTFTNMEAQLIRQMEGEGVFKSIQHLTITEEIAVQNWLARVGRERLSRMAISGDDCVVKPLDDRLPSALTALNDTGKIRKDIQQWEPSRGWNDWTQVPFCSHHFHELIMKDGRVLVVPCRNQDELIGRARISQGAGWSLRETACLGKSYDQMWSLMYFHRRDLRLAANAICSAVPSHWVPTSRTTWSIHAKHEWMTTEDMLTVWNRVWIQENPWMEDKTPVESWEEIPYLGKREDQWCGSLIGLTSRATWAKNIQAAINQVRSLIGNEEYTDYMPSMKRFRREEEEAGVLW
# Luciferin 4-monooxygenase, sequence (P08659 whole entry): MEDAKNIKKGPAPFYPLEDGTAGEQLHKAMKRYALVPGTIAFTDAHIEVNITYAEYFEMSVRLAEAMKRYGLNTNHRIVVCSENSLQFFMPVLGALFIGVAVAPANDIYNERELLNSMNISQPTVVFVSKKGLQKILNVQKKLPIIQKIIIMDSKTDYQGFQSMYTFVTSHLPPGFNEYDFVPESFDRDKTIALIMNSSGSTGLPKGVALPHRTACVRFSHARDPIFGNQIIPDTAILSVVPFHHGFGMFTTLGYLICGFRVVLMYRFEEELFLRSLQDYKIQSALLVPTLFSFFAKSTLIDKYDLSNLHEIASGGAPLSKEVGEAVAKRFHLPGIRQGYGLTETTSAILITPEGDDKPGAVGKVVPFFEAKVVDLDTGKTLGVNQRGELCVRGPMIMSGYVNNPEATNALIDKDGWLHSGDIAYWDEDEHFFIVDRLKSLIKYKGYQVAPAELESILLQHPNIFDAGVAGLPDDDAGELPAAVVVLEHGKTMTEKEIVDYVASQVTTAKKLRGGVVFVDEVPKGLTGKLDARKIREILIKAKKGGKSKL
# Hexokinase HKDC1, sequence (Q2TB90 whole entry): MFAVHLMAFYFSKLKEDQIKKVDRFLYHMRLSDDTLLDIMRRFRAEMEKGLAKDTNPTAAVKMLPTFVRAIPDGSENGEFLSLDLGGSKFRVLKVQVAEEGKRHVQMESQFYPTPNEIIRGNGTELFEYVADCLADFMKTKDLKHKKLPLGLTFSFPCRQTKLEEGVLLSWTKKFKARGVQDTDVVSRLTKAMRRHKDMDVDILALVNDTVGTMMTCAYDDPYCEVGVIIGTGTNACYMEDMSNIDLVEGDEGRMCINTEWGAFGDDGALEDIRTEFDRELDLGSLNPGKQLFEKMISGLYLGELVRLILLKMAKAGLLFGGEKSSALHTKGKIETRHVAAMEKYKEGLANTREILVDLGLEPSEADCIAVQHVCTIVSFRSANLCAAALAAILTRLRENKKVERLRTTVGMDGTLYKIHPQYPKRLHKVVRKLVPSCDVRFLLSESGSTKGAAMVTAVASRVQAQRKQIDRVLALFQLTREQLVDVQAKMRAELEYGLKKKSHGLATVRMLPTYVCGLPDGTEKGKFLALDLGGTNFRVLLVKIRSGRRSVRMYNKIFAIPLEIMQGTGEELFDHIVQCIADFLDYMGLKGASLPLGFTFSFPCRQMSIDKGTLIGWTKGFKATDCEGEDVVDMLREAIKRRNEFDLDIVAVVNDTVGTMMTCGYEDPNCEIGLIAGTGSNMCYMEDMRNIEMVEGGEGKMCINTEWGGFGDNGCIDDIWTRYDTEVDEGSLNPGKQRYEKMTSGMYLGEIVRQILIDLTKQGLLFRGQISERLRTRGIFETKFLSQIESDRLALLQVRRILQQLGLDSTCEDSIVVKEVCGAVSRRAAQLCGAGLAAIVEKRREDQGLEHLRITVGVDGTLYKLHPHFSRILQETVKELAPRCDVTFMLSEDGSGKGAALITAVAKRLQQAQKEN
# Serine/threonine-protein phosphatase PP1-alpha catalytic subunit, sequence (P62136 whole entry): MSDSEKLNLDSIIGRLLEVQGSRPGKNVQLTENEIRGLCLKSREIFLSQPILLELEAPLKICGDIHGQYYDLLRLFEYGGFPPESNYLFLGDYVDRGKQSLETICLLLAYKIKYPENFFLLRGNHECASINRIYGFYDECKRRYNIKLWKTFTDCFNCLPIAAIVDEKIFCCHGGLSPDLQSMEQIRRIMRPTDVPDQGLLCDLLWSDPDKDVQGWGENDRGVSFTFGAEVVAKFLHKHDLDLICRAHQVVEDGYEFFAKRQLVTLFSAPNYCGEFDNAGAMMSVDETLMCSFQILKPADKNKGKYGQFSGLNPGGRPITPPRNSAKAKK
# Kappa-type opioid receptor, sequence (P41145 whole entry): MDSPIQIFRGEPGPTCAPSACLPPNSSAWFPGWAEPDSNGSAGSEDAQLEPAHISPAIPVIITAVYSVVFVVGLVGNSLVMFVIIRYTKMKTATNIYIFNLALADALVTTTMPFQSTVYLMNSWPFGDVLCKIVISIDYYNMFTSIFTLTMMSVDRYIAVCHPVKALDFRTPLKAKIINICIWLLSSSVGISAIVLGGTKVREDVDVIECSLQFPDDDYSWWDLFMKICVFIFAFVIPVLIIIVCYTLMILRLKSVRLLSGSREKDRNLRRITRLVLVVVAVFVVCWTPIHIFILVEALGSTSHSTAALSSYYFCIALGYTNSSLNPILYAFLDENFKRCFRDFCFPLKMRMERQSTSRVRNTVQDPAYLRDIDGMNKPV
# Photoreceptor-specific nuclear receptor, sequence (Q9Y5X4 whole entry, the tested form may be a part): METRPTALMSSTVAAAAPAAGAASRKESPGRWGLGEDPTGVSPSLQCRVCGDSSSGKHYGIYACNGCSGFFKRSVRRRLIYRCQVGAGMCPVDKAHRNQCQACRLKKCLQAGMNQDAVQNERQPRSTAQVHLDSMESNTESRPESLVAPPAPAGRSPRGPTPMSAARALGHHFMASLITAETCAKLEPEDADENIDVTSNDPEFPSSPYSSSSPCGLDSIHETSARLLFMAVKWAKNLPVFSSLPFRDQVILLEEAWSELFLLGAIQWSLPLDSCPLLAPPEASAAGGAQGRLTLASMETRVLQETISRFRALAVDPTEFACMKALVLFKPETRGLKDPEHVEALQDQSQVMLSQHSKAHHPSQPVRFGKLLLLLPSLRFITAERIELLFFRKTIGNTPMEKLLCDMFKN
smiles,measurement,setting,value
Nc1ccc(N2CCCCC2)c2nonc12,IC50,Genome polyprotein,40.6 µM (active)
Cc1ccc(S(=O)(=O)/N=C2\C=C(Nc3cccc(C(=O)O)c3)C(=O)c3ccccc32)c(C)c1,IC50,Hexokinase HKDC1,8.6 µM (active)
same,IC50,[1],27.1 µM (not active)
same,IC50,[2],0.919 µM (active)
same,IC50,[3],74.5 µM (inactive)
same,IC50,[4],4.11 µM (active)
COc1ccc(NC(=O)/C(Cl)=C(/Cl)[S+]([O-])Cc2ccccc2)cn1 (stereo unspecified),IC50,[5],7.62 µM
same,IC50,[6],33 µM (inactive)
same,IC50,[7],0.92 µM (active)
same,EC50,[8],0.197 µM (active)
same,IC50,[9],36.5 µM (active)
same,CC50,HeLa,1.75 µM (active)
same,EC50,[10],> 112 µM (not active)
same,AC50,[11],2 µM (active)
same,CC50,[12],24.1 µM (active)
same,IC50,CHO,0.453 µM (active)
